Assay: Cytotoxicity against mouse MDR1 transfected L5178YvMDR cell line

Q: With `CN1C2C3C4N(C)C5C(C1[C@]5(CO)[C@H]3c1ccccc1)[C@@H](c1ccccc1)[C@@]24CO` [1,7-dihydroxymethyl-3,9-dimethyl-6,12-diphenyl-3,9-diazahexacyclo[6.4.0.0 2.7.0 4.11.0. 5.10]dodecane] as the molecule, how does the IC50 read?
A: 7.5 µM

Q: For `O=C(Oc1ccccc1)N1C2C3C4N(C(=O)Oc5ccccc5)C5C(C1[C@]5(CO)[C@H]3c1ccccc1)[C@@H](c1ccccc1)[C@@]24CO` [1,7-dihydroxymethyl-6,12-diphenyl-3,9-diphenoxycarbonyl-3,9-diazahexacyclo[6.4.0.0(2.7)0(4.11)0(5.10)]dodecane], which IC50 is on record?
A: 21 µM

Q: For `CC(C)(C)OC(=O)N1C2C3C4N(C(=O)OC(C)(C)C)C5C(C1[C@]5(CO)[C@H]3c1ccccc1)[C@@H](c1ccccc1)[C@@]24CO` [3,9-di(tert.)butoxycarbonyl-1,7-dihydroxymethyl-6,12-diphenyl-3,9-diazahexacyclo[6.4.0.0(2.7)0(4.11)0(5.10)]dodecane], which IC50 is on record?
A: 3.2 µM

Q: Which IC50 does the source give for `OC[C@]12C3C4C1N(Cc1ccccc1)C1C(C(N3Cc3ccccc3)[C@]1(CO)[C@H]4c1ccccc1)[C@H]2c1ccccc1` [3,9-dibenzyl-1,7-dihydroxymethyl-6,12-diphenyl-3,9-diazahexacyclo[6.4.0.0(2.7)0(4.11)0(5.10)]dodecane] here?
A: 13.3 µM

Source: BindingDB's records for doi:10.1021/jm058046w (Martin-Luther-University Halle-Wittenberg, 2006)
